For data set [1] the following is noted: cited from earlier work.
For data set [2] the following is noted: parenteral, n>20,000; cited from earlier work.
Data set [3] relates to rats intraplantarly injected with carrageenin. As to the kind of experiment: Paw swelling (paw thickness), anti-inflammatory effect after intramuscular injection. The data set is classed as in vivo, Sprague-Dawley rats. As for the experimental part: Louis, Mo., USA) was injected subcutaneously into the plantar space of the right hind paw of all rats. Intraplantar injections were made with a Hamilton syringe and a 30-gauge hypodermic needle. The needle was inserted into the pad region of the glabrous skin and moved 6-8 mm proximal toward the tarsal region. • (5) Measurements of the pain threshold values of rat paw: Paw pressure test was conducted using the TSE Analgesia System (TSE Technical & Scientific Equipment GmbH; Bad Homburg, Germany). […] Paw thickness was measured immediately prior to and following carrageenin injection. […] A two-way analysis of variance with one-way repeated method was used to compare the differences between groups. The Bonferroni test was used as a post-hoc test to compare the differences between the medication groups and the vehicle group at each time point. […] (“*” means P<0.05 whereas “+” means P<0.01 when compared with the vehicle group). The two-way analysis of variance with one-way repeated method is a powerful statistical method which can be used to evaluate the differences among groups. […] In order to keep a similar condition of carrageenin-induced paw edema and pain at each testing day, this 4-day study was accomplished by conducting four one-day studies consecutively (i.e. from day 1 to day 4). All rats received only one intramuscular injection of either ketorolac propyl ester (80, 160, or 240 μmole/Kg, prepared in sesame oil) or the vehicle (sesame oil only) at the start of study (day 1) and then (1 minute later) received intraplantar injection of carrageenin at either day 1, 2, 3, or day 4. Each rat received only one injection of carrageenin. […] A three-way analysis of variance with one-way repeated method was used to compare the differences between groups. The Bonferroni test was used as a post-hoc test to compare the differences between the medication groups and the vehicle group at each time point. […] (“*” means P<0.05 whereas “+” means P<0.01 when compared with the vehicle group). The three-way analysis of variance with one-way repeated method is a powerful statistical method which can be used to evaluate the differences among groups. […] A 4-day study was carried out. […] All rats received only one intramuscular injection of a tested analgesic drug (ketorolac or a ketorolac ester derivative, prepared in sesame oil) or the vehicle (sesame oil only) at the start of study (day 1) and then received intraplantar injection of carrageenin at either day 1, 2, 3, or day 4. Each rat received only one injection of carrageenin. […] All rats received only one intramuscular injection of either a tested analgesic drug (ketorolac propyl ester prepared in four different oils) or the vehicle (4 different oils) at the start of study (day 1) and then received intraplantar injection of carrageenin at either day 1, 2, 3, or day 4. Each rat received only one injection of carrageenin.

Data set [4] shares this test system. Put plainly: Paw pressure test (pain threshold of paw), analgesic effect after intramuscular injection. It counts as in vivo, Sprague-Dawley rats. The protocol: Louis, Mo., USA) was injected subcutaneously into the plantar space of the right hind paw of all rats. Intraplantar injections were made with a Hamilton syringe and a 30-gauge hypodermic needle. The needle was inserted into the pad region of the glabrous skin and moved 6-8 mm proximal toward the tarsal region. • (5) Measurements of the pain threshold values of rat paw: Paw pressure test was conducted using the TSE Analgesia System (TSE Technical & Scientific Equipment GmbH; Bad Homburg, Germany). The TSE Analgesia System is designed to perform rapid and accurate screening of analgesic drug candidates on the normal and inflamed paw of small laboratory animals, according to the Randall-Selitto method. The data can be measured and recorded by a control unit and a computer system connected thereto. The animal's paw is placed on a plinth and is applied with an increasing pressure generated from the tip of a sensor. The applied pressure is measured. The sensor is made from smooth plastic to prevent the paw from being injured when the animal withdraws its paw suddenly. To start the test, a foot switch is pressed and the sensor is lowered rapidly until it contacts the rat's paw. Thereafter, the sensor is lowered in small steps until the pain threshold is reached, at which time the tested animal (rat) starts to move vigorously and tries to withdraw its paw. The foot switch is then released and the sensor is raised. The value of the applied pressure measured at the pain threshold is shown on the display and simultaneously delivered to the computer system, which is installed with a software system capable of transferring the measured data into Excel format, which can be used as a basis for further evaluation, e.g., statistics. The TSE Analgesia system is suitable for rats, mice and other small laboratory animals. […] To prevent tissue damage, a cutoff pressure of 350 gm was set. […] In order to keep a similar condition of carrageenin-induced paw edema and pain at each testing day, this 4-day study was accomplished by conducting four one-day studies consecutively (i.e. from day 1 to day 4). All rats received only one intramuscular injection of either ketorolac propyl ester ([…], […]) or the vehicle ([…]) at the start of study (day 1) and then (1 minute later) received intraplantar injection of carrageenin at either day 1, 2, 3, or day 4. Each rat received only one injection of carrageenin. […] A three-way analysis of variance with one-way repeated method was used to compare the differences between groups. The Bonferroni test was used as a post-hoc test to compare the differences between the medication groups and the vehicle group at each time point. […] (“*” means P<0.05 whereas “+” means P<0.01 when compared with the vehicle group). The three-way analysis of variance with one-way repeated method is a powerful statistical method which can be used to evaluate the differences among groups. […] A 4-day study was carried out. […] All rats received only one intramuscular injection of a tested analgesic drug (ketorolac or a ketorolac ester derivative, […]) or the vehicle ([…]) at the start of study (day 1) and then received intraplantar injection of carrageenin at either day 1, 2, 3, or day 4. Each rat received only one injection of carrageenin.

The nature of another data set: Solubility in sesame oil. It counts as physicochemical.
For data set [5] the following is noted: cited from earlier work. The source holds these as a separate data set.
For data set [6] the following is noted: human cadaver skin, compared with KEE; cited from earlier work.
The conditions of data set [7]: human serum, compared with KEE; cited from earlier work.
For data set [8] the following is noted: cited from earlier work. This is another data set of the same source.
Data set [9] concerns rats intraplantarly injected with carrageenin. As to the kind of experiment: Paw swelling (paw thickness), anti-inflammatory effect after intramuscular injection. It counts as in vivo, Sprague-Dawley rats. The note with it: for Anti-inflammatory duration (h): in water.
For data set [10] the following is noted: 30 mg (=80 μmole) given to an adult, clinical practice; cited from earlier work.
For data set [11] the following is noted: compared with commercially available ketorolac (trometamole salt); cited from earlier work.
Where [12] appears, read: 240 μmole/Kg intramuscular, oil suspension in sesame oil.
The mark [13] stands for this setting: 240 μmole/Kg intramuscular, in oil A (sesame oil).
Where [14] appears, read: 80 μmole/Kg intramuscular, in oil A (sesame oil).
Setting [15] is: 160 μmole/Kg intramuscular, in oil A (sesame oil).
Setting [16] is: 240 μmole/Kg intramuscular, in oil B (soybean oil).
Setting [17] is: 240 μmole/Kg intramuscular, in oil C (peanut oil).
Where [18] appears, read: 240 μmole/Kg intramuscular, in oil D (castor oil).
[19] abbreviates: 240 μmole/Kg intramuscular, in oil E (cotton seed oil).
Where [20] appears, read: intramuscular injection of 24-240 μmole, in 0.9% saline.

≈ marks a conversion by molar mass, not a printed value.

On to `O=C(c1ccccc1)c1ccc2n1CCC2C(=O)O` (racemic) [Ketorolac, (±)-5-benzoyl-2,3-dihydro-1H-pyrrolizine-1-carboxylic acid], for which the “bound to plasma proteins” value in data set [1] is > 99%. In [2], the “odds ratio (OR), risk of gastrointestinal bleeding compared to opioids” value is reported as 1.30 and the “odds ratio (OR), risk of operative site bleeding compared to opioids” value is reported as 1.02. Also, in data set [3] (setting [12]), the anti-inflammatory effect result was “failed to provide significant analgesic and antiinflamatory effects”. The analgesic effect entry in data set [4] (setting [12]) was “failed to provide significant analgesic and antiinflamatory effects”. The molecule further returned a solubility in sesame oil in “Solubility in sesame oil” of 10.6 mM (≈ 2710 µg/mL). This molecule displayed a solubility in “Solubility in sesame oil” (oil or lipid) of 2700 µg/mL (≈ 10.6 mM). Moreover, the “mean terminal elimination half-life (T1/2β)” value in [5] (healthy volunteers) was “about 5 hours”. Moreover, the “apparent volume of distribution (Vd)” value in [5] (in vivo) is listed as < 0.3 L/kg.
As for `CN(C)C(=O)COC(=O)C1CCn2c(C(=O)c3ccccc3)ccc21` (centres unmarked) [KDAE, ketorolac [(N,N-dimethylamino)carbonyl]methyl ester], in data set [6], the skin flux entry was “relatively higher skin flux”. Also, the “enzymatic hydrolysis to liberate the parent drug” value in data set [7] is reported as “faster enzymatic hydrolysis”.
Turning to `O=C(c1ccccc1)c1ccc2n1CCC2C(=O)OCc1ccccc1` (centres unmarked) [Ketorolac benzyl ester], in data set [3] (setting [13]), the “Anti-inflammatory duration” value was 56 h. Also, the “Analgesic duration” value in [4] (setting [13]) is 56 h.
For the molecule `CCCCCCCCCCCCCCCCOC(=O)C1CCn2c(C(=O)c3ccccc3)ccc21` (centres unmarked) [Ketorolac cetyl ester], the “Anti-inflammatory duration” value in data set [3] (setting [13]) amounted to 78 h. Further, the “Analgesic duration” value in data set [4] (setting [13]) turned out to be 74 h.
For `CCCCCCCCCCOC(=O)C1CCn2c(C(=O)c3ccccc3)ccc21` (centres unmarked) [Ketorolac decyl ester] the same measures were 76 h and 76 h.
On to `CCCCCCCOC(=O)C1CCn2c(C(=O)c3ccccc3)ccc21` (centres unmarked) [Ketorolac heptyl ester], for which, in [3] (setting [13]), the “Anti-inflammatory duration” value is 74 h. Moreover, the “Analgesic duration” value in data set [4] (setting [13]) was 74 h.
Consider `CCCCCOC(=O)C1CCn2c(C(=O)c3ccccc3)ccc21` (centres unmarked) [Ketorolac pentyl ester], for which the “Anti-inflammatory duration” value in data set [3] (setting [13]) came to 56 h. Besides, in data set [4] (setting [13]), the “Analgesic duration” value amounted to 56 h.
With `CCCOC(=O)C1CCn2c(C(=O)c3ccccc3)ccc21` (centres unmarked) [Ketorolac propyl ester], the “permeation rate of ketorolac in rat skin (maximum)” value in data set [8] was 46.61 nmole/cm^2/h. Further, the “Anti-inflammatory duration” value in data set [3] (setting [14]) amounted to 6 h; in [3] (setting [15]) it was 30 h; in [3] (setting [13]), 54 h; in data set [3] (setting [16]), 54 h; in data set [3] (setting [17]) it was 56 h; in data set [3] (setting [18]) it was 56 h. For the same molecule, the “Anti-inflammatory duration” value in data set [3] (setting [19]) worked out at 78 h. In addition, the “Analgesic duration” value is 6 h in [4] (setting [14]); 28 h in data set [4] (setting [15]); 54 h in [4] (setting [13]); 56 h in data set [4] (setting [18]); 78 h in [4] (setting [19]). The “Analgesic duration (h)” value in [4] (setting [16]) is on record as 56, 56 h; in [4] (setting [17]), 56, 56 h.
On to `CC(C)(C)OC(=O)C1CCn2c(C(=O)c3ccccc3)ccc21` (centres unmarked) [Ketorolac tert-butyl ester], for which the “Anti-inflammatory duration” value in data set [3] (setting [13]) worked out at 56 h. Also, the “Analgesic duration” value in data set [4] (setting [13]) turned out to be 56 h.
As for `NC(CO)(CO)CO.O=C(c1ccccc1)c1ccc2n1CCC2C(=O)O` (centres unmarked) [Ketorolac tromethamine, ketorolac tromethamine, reference compound], the “Anti-inflammatory duration (h)” value was 8, 8, 8 h in [9] (24 μmole/Kg intramuscular); 8, 8, 8 h in data set [9] (80 μmole/Kg intramuscular); 8, 8, 8 h in data set [9] (240 μmole/Kg intramuscular). The “duration of significant anti-inflammatory effects (paw swelling)” value in data set [9] (setting [20]) amounted to 8 h. Moreover, the duration of action in data set [10] and in data set [4] (intramuscular injection 30 mg/kg in rats) was 6 to 8 h throughout. Besides, the “Analgesic duration” value in data set [4] (24 μmole/Kg intramuscular, in water) is 6 h; in data set [4] (80 μmole/Kg intramuscular, in water) it was 6 h; in data set [4] (240 μmole/Kg intramuscular, in water), 8 h. In addition, in data set [4] (setting [20]), the “duration of significant analgesic effects (pain threshold of paw)” value fell in the range of 6 to 8 h.
On to `CCN(CC)CCOC(=O)C1CCn2c(C(=O)c3ccccc3)ccc21.O=C(O)/C=C\C(=O)O` (centres unmarked) [maleate salt of 2-(diethylamino)ethyl ester of ketorolac], for which the “undesired side effects (gastrointestinal irritation and ulceration)” value in [11] is given as “less undesired side effects”.
In the case of `O=C(O)C(=O)O.O=C(c1ccccc1)c1ccc2n1CCC2C(=O)OCCN1CCCC1` (centres unmarked) [oxalate salt of 2-(1-pyrrolidinyl)ethylester of ketorolac], the “undesired side effects (gastrointestinal irritation and ulceration)” value in [11] is given as “less undesired side effects”.

Source of the values: US20060183786A1, “Injectable long-acting analgesic composition comprising an ester derivative of ketorolac” (CHI MEI FOUNDATION HOSPITAL, priority 2005, published 2006).
